Results on eleven compounds are retold here after paper PMC10388362, “Fluorescent Ligands Enable Target Engagement Studies for the Intracellular Allosteric Binding Site of the Chemokine Receptor CXCR2” (Journal of Medicinal Chemistry, 2023).

SMILES strings stand for the structures. Several values for one entry are separate records, joined by “and”; a condition that tells them apart may be missing. Identical values can stand only once. Like-named read-outs stand apart in the source and are kept apart here. Some results are limits rather than exact numbers.

In experiment [1] the target is T1, CXCR1 (Homo sapiens, UniProt P25024).
T1 construct: host or cells: HEK293T, transient; membrane preparation
T1 sequence (P25024 1-350): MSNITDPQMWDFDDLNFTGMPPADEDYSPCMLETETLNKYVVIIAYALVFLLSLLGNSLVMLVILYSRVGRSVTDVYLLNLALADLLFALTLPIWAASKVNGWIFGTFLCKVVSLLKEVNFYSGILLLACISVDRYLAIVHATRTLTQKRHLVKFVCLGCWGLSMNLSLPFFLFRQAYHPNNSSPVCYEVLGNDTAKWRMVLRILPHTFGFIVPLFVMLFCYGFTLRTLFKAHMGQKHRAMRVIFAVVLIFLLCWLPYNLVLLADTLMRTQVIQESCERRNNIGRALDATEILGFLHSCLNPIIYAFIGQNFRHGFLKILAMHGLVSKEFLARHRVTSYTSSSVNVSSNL
Description: Membrane-based NanoBRET saturation assay, selectivity (CXCR1_Nluc membranes). It counts as binding. As to conditions: cell-free, CXCR1_Nluc membranes. The procedure:
(§1) For the establishment of our NanoBRET binding assay, we referred to a recently published protocol.[45] The fluorescent ligands (9a–c) were dissolved in DMSO (1 mM) and further diluted to varying concentrations in an assay buffer (50 mM Na2HPO4, 50 mM KH2PO4, pH 7.4, 1 mg/mL saponin, 5% FBS) and 5 μL of these dilutions were pipetted to a 384-well plate. To determine the total binding, 5 μL of the assay buffer was added to the corresponding wells, while 5 μL of a solution of 3 in the assay buffer (final assay concentration: 1 μM) was used to determine nonspecific binding. Then, 20 μL of the membrane preparations diluted in the assay buffer (2 μg total protein/well) were added and the plates were incubated for 90 min at 37 °C. Subsequently, 5 μL of a furimazine solution (Promega, Mannheim, Germany, final assay dilution: 1:5000) was added to each well (final assay volume: 35 μL) before measuring luminescence with a CLARIOstar microplate reader using 620/10 and 475/30 nm emission filters after 5 min of incubation in the dark. Bioluminescence resonance energy transfer (BRET) was determined as the ratio of acceptor fluorescence and donor luminescence. The algorithms for one-site saturation binding from PRISM9.5 (GraphPad) were utilized to analyze total, nonspecific, and specific binding. Specific binding signals were calculated as a difference of total and nonspecific binding. If required, netBRET values were calculated as the difference between total BRET values and the values obtained in the absence of a fluorescent ligand. For selectivity studies with CCR2, CCR7, CCR9, and CXCR1, we modified the procedure described above.
(BRET reads energy transfer from a luciferase to a nearby fluorophore.)

The target of experiment [2] is T2, CXCR2 (Homo sapiens, UniProt P25025).
T2 construct: Promega pNLF1-C (Nluc) #CXCR20TN00; host or cells: HEK293T, transient transfection (PEI)
T2 sequence (P25025 1-360): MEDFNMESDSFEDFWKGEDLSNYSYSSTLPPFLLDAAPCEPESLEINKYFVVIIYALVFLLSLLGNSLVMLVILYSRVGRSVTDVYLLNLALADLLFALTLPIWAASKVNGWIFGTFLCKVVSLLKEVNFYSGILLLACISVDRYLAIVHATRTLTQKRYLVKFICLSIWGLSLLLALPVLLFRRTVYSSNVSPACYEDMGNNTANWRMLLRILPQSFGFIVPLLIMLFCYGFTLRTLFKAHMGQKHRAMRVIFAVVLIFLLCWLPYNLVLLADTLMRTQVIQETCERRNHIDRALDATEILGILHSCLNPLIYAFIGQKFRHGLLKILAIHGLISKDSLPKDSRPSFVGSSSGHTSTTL
Description: Membrane-based NanoBRET saturation assay (CXCR2_Nluc membranes). It counts as binding. As to conditions: cell-free. The procedure:
Membranes from HEK293T cells transiently expressing the respective GPCR were prepared as follows. The medium of the transfected cells was refreshed after 24 h before cells were harvested 48 h post-transfection. The growth medium was removed, and the cells were carefully washed with cold phosphate-buffered saline (10 mL per Ø 15 cm dish). The cells were detached with 15 mL of ice-cold Tris-EDTA buffer (10 mM Tris, 0.5 mM EDTA, 5.4 mM KCl, 140 mM NaCl, pH 7.4) and subsequently centrifuged with 218g for 8 min. The supernatant was removed and the cells were resuspended in 10 mL of Tris-EDTA buffer. The cells were lysed with an Ultraturrax (20,000 rpm) used five times for 5 s with a 25 s break on ice in between. The lysate was centrifuged at 50,830g for 18 min at 4 °C. The supernatant was discarded, and the pellet was homogenized in a membrane buffer (50 mM Tris, 1 mM EDTA, 5 mM MgCl2, 100 μg/mL bacitracin, 5 μg/mL soybean trypsin inhibitor, pH 7.4) with a glass-teflon homogenizer. Aliquots of 250 μL were shock-frozen in liquid nitrogen and directly stored at −80 °C. Finally, the protein concentration was determined using the Lowry method.[43]
as §1

In experiment [3] the target is T2, CXCR2. Description: Membrane-based NanoBRET competition assay with 9a. It counts as binding. As to conditions: for % comp. @ 70 μM: competitor 70 μM, 9a (50 nM). The procedure: Then, 20 μL of the membrane preparation (diluted in assay buffer, 2 μg total protein/well) was added and the plates were incubated for 90 min at 37 °C. Subsequently, 5 μL of a furimazine solution (final assay dilution: 1:5000 in the assay buffer) was added to each well (final assay volume: 35 μL). […] To determine the inhibition constants (Ki) of the nonlabeled ligands, data were analyzed using the one-site-fit Ki equation in PRISM9.5 (GraphPad).

Experiment [4] has as its target T2, CXCR2. As to conditions: cited from earlier work.
In experiment [5] the target is T2, CXCR2. Description: Fluorescence microscopy, displacement of 9a in HEK293 cells stably expressing CXCR2. It counts as cell-based. As to conditions: 9a 500 nM. The procedure:
For live cell microscopy, HEK293 cells stably expressing CXCR2 were seeded onto poly-D-lysine (PDL)-coated 8-well μ-slides (Ibidi) at a density of 1.5 × 10^5 cells per well and cultured overnight at 37 °C and 5% CO2. […] Afterward, the fluorescent CXCR2 ligand ((9a) final concentration 500 nM) was added for 60 min at 37 °C, and the cells were washed once with PBS before imaging. For immunostaining, the cells were first fixed with 4% paraformaldehyde solution, washed with PBS, and then blocked for 1 h with 10% goat serum and 1% fatty acid-free bovine serum albumin (BSA) in PBS at 37 °C. As primary antibody, anti-CXCR2 mouse IgG (R&D Systems, catalog # 48311, 1:100 in blocking solution) was added, and the cells were incubated for 1 h at 37 °C. After three washes with PBS, goat anti-mouse IgG (H+L) conjugated to FITC (Sigma-Aldrich, catalog # AP124F, 1:500 in blocking solution) was added for 1 h at 37 °C. The cells were again washed three times with PBS and counterstained with 4′,6-diamidin-2-phenylindole (DAPI) solution (0.1 μg/mL) for 15 min in the dark at room temperature, followed by three washes with PBS. […] Afterward, the fluorescent CXCR2 ligand ((9a) final concentration 500 nM) was added for 30 min at 37 °C and the cells were imaged. Microscopy was carried out on an AxioObserver.Z1 microscope (Carl Zeiss, Jena, Germany) equipped with an ApoTome imaging system and a Heating unit XL S using a Plan-Apochromat ×63/1.40 Oil objective (filter set 43 (red), 38 (green), 49 (blue)). Image processing and line scan analysis were performed with Zen blue Imaging software. The fluorescence intensity values were normalized to vehicle control.

Setting [6] is: membranes from HEK293T cells transiently expressing CXCR2_Nluc, read-out: Kd (equilibrium saturation binding).
Setting [7] is: Ki of nonfluorescent ligands, cell-free, read-out: cell-free Kd or Ki for CXCR2.
Setting [8] is: competition with 9a (50 nM), CXCR2_Nluc membranes, read-out: Ki.
[9] abbreviates: competition with 9a (50 nM), CXCR2_Nluc membranes, read-out: pKi (converted).

Regarding `Cc1ccc([C@H](Nc2c(Nc3cccc(C(=O)NCc4cn(CCCNC(=O)c5ccc(-c6c7ccc(=[N+](C)C)cc-7oc7cc(N(C)C)ccc67)c(C(=O)[O-])c5)nn4)c3O)c(=O)c2=O)C(C)(C)C)o1` [9c, (R)-5-((3-(4-((3-((2-((2,2-Dimethyl-1-(5-methylfuran-2-yl)propyl)amino)-3,4-dioxocyclobut-1-en-1-yl)amino)-2-hydroxybenzamido)methyl)-1H-1,2,3-triazol-1-yl)propyl)carbamoyl)-2-(6-(dimethylamino)-3-(dimethyliminio)-3H-xanthen-9-yl)benzoate], the Kd in experiment [1] was determined as 49.3 ± 0.7 nM; in experiment [2] (Kd of fluorescent ligands, read-out: cell-free Kd or Ki for CXCR2), 2 nM; in experiment [2] (setting [6]), 2.62 ± 0.78 nM.
For `Cc1ccc([C@H](NC2=NS(=O)(=O)N=C2Nc2ccc(C)c(C(=O)N(C)C)c2O)C(C)(C)C)o1` [compound 22], the Ki was 261 nM in experiment [3] (setting [7]); ≥ 261 nM and 300 nM in experiment [3] (setting [8]); 251 nM in experiment [3] (setting [9]).
Turning to `Cc1ccc([C@H](Nc2c(Nc3cccc(C(=O)NCc4cn(CCOCCOCCNC(=O)c5ccc(C(=O)[O-])c(-c6c7ccc(=[N+](C)C)cc-7oc7cc(N(C)C)ccc67)c5)nn4)c3O)c(=O)c2=O)C(C)(C)C)o1` [9b, (R)-4-((2-(2-(2-(4-((3-((2-((2,2-Dimethyl-1-(5-methylfuran-2-yl)propyl)amino)-3,4-dioxocyclobut-1-en-1-yl)amino)-2-hydroxybenzamido)methyl)-1H-1,2,3-triazol-1-yl)ethoxy)ethoxy)ethyl)carbamoyl)-2-(6-(dimethylamino)-3-(dimethyliminio)-3H-xanthen-9-yl)benzoate], the Kd in experiment [1] came out at 122 ± 5.6 nM; in experiment [2] (setting [6]), 4.62 ± 0.87 nM.
On to `CC(C)(C)c1ccc(S(=O)(=O)Nc2ccc(Cl)cc2-c2cncnc2N)cc1` [compound 24], for which the Ki in experiment [3] (setting [8]) is at least 261 nM. Moreover, in experiment [3] (CXCR2_Nluc membranes), the “% comp. @ 70 μM” value stood at 28%.
In the case of `CC[C@@H](Nc1c(Nc2ccnc(C(=O)N(C)C)c2O)c(=O)c1=O)c1cc(C(C)C)co1` [compound 1], the IC50 (commonly the concentration needed to halve the response being measured) in experiment [4] (reported value ref 4) is 0.62 nM.
As to `COCCn1cc(CNC(=O)c2cccc(Nc3c(N[C@@H](c4ccc(C)o4)C(C)(C)C)c(=O)c3=O)c2O)nn1` [compound 8, (R)-3-((2-((2,2-Dimethyl-1-(5-methylfuran-2-yl)propyl)amino)-3,4-dioxocyclobut-1-en-1-yl)amino)-2-hydroxy-N-((1-(2-methoxyethyl)-1H-1,2,3-triazol-4-yl)methyl)benzamide], the Ki in experiment [3] (setting [9]) is 0.427 nM.
As for `CC[C@@H](Nc1c(Nc2cccc(C(=O)N(C)C)c2O)c(=O)c1=O)c1ccc(C)o1` [compound 2, navarixin], in experiment [5] (fixed HEK293 cells stably expressing CXCR2, competitor 10 μM), the “effect of preincubation on membrane-associated 9a fluorescence” value is “virtually blunted all membrane-associated probe fluorescence”. The “effect of preincubation on membrane-based 9a fluorescence” value in experiment [5] (live cell imaging, HEK293 cells stably expressing CXCR2, competitor 10 μM) is given as “very strong reduction in membrane-based fluorescence”.
Regarding `O=C(O)c1ccccc1Oc1ccc(Cl)cc1NS(=O)(=O)c1ccc(Cl)c(Cl)c1` [compound 21], the Ki in experiment [3] (setting [7]) is 4900 nM; in experiment [3] (setting [8]) it was at least 261 nM; in experiment [3] (setting [9]), 4680 nM.
On to `O=C(Nc1ccc(Cl)c(S(=O)(=O)N2CCNCC2)c1O)Nc1cccc(F)c1Cl` [compound 6, elubrixin], for which the IC50 in experiment [4] (reported value ref 17) is 22 nM.
Turning to `CC(C)(C)c1ccc(S(=O)(=O)Nc2ccc(Cl)cc2C(=O)c2cc[n+]([O-])cc2)cc1` [compound 23, vercirnon], the “cell-free Kd or Ki for CXCR2 [nM]” value in experiment [3] (Ki of nonfluorescent ligands, cell-free) is “n.i”. For the same compound, the Ki in experiment [3] (setting [8]) is at least 261 nM. For the same compound, the “% comp. @ 70 μM” value in experiment [3] (CXCR2_Nluc membranes) is -3%.
For the compound `CC(=O)C1=C(O)C(=O)N(c2ccc(Br)cc2F)C1C1CCCCC1` (stereo not drawn) [compound 20], the Ki in experiment [3] (setting [7]) is 2700 nM; in experiment [3] (setting [8]) it was at least 261 nM; in experiment [3] (setting [9]), 2630 nM.
